{"source": "paper PMC10224356", "about": "“Trisubstituted 1,3,5-Triazines as Histamine H4 Receptor Antagonists with Promising Activity In Vivo” (Molecules, 2023)", "key": {"[1]": {"target": "T1, human histamine H4 receptor (Homo sapiens, UniProt Q9H3N8)", "T1 construct": "made in house; host or cells: Sf9 cells (membrane preparations)", "T1 sequence (Q9H3N8 whole entry)": "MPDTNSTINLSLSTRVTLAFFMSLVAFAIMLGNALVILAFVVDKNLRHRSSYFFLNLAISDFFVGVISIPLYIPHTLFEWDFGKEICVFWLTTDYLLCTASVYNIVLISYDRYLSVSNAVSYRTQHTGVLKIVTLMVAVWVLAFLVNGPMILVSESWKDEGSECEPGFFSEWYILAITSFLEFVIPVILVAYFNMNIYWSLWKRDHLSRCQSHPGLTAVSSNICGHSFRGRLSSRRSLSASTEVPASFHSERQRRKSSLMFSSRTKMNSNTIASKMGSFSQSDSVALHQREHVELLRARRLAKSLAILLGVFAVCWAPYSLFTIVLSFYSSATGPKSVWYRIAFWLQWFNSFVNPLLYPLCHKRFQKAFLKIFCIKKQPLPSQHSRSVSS", "conditions": "ref 57 (Grosicki et al.); read-out: hH4R Ki; cited from earlier work"}, "[2]": {"target": "T2, hH4R (Homo sapiens, UniProt Q9H3N8)", "T2 sequence (Q9H3N8 whole entry)": "as above", "assay": "cAMP accumulation assay (LANCE Ultra cAMP, CHO-K1 cells stably expressing hH4R)", "type": "cell-based", "parameters": "expressed in transfected cells", "procedure": "Intrinsic activity via the Gα subunit was measured using a LANCE Ultra cAMP detection kit and CHO-K1 cells stably expressing hH4R. Adenyl cyclase was stimulated by forskolin (10 µM).\nIntrinsic activity in G protein-dependent pathway was measured with homogenous TR-FRET immunoassay, using LANCE Ultra cAMP kit and CHO-K1 H4R cell line or γ-irradiated recombinant CHO-K1 H4R cells (all from PerkinElmer). […] If the CHO-K1 H4R cell line was used it had been cultivated in DMEM/F12 10% FBS 400 µg/mL geneticin and passaged three times a week. […] The antagonist activity was measured in a white, opaque, 384-well microplate (PerkinElmer) with a total volume of 20 µL. […] After incubation, 5 µL of europium chelate-labelled cAMP tracer and 5 µl of ULight-labelled anti-cAMP mAb working solutions were added, mixed and incubated for 1 h. TR-FRET signal was read using a microplate reader (PerkinElmer, Waltham, MA, USA)."}, "[3]": {"target": "T2, hH4R", "assay": "cAMP accumulation assay (LANCE Ultra cAMP, CHO-K1 cells stably expressing hH4R)", "type": "cell-based", "parameters": "expressed in transfected cells", "conditions": "antagonist mode"}, "[4]": {"target": "T2, hH4R", "assay": "β-arrestin recruitment assay (LiveBLAzer, Tango-H4-bla U2OS cells)", "type": "cell-based", "parameters": "expressed in transfected cells; host or cells: Tango-H4-bla U2OS cells", "procedure": "Compounds were tested using LiveBLAzer^TM assay and Tango-H4-bla U2OS cells, allowing the estimation of the percentage of β-arrestin recruitment in response to tested treatments.\nAll used media and reagents except DMSO and tested compounds were purchased from ThermoFisher Scientific, Waltham, MA, USA. DMSO was from CarlRoth (Karlsruhe, Germany) and histamine was from Sigma Aldrich (Darmstadt, Germany). […] The day before the experiment cells were collected from the culture flask with trypsin and seeded in 384 well black-wall, clear-bottom plate (PerkinElmer, Waltham, MA, USA) in concentration 10,000 cells/well in FreeStyle medium. After 24 h of incubation, the cells were checked under the microscope and the dilutions of tested compounds were prepared and added to the wells. In agonist mode compounds were added to the wells and plates were placed in the incubator (HERAcell240, Heraeus, Hanau, Germany) for 16 h. In antagonist mode, first, the compounds were added to the wells, plates were incubated for 30 min, then histamine solution (corresponding to EC80—500 nM) was added and plates were put in the incubator for 16 h. After this time β-lactamase substrate mixture was prepared and added to wells (8 µL/well). Cells were incubated for 2 h at room temperature in the dark then the signal was read using an EnSpire microplate reader (PerkinElmer, Waltham, MA, USA). Drawing of dose-dependent curves and IC50 calculation for compounds were made using GraphPad Prism 6 (GraphPad Software, San Diego, CA, USA)."}, "[5]": {"tested_on": "mice", "assay": "Histamine-induced pruritus", "type": "in vivo", "conditions": "10 mg/kg, 60 min observation (control 62.11 ± 9.4)", "procedure": "Intradermal injection of histamine induced scratching bouts in the amount of 62.11 ± 9.4. […].\n(§1) The surface (around 2 cm^2) of the mice’s nape was shaved at least 2 days prior to experiments. On the day of the experiment, mice were individually placed in plastic chambers (15 × 15 × 30 cm) and after the 30 min habituation period, they were given an intradermal (i.d.) injection of histamine dihydrochloride (10 µmol/site) or chloroquine (CQ, 200 µg/site), which were dissolved in physiological saline and administrated in the constant volume of 20 μL. Immediately after the injection, scratching (series of movements considered as a single scratching bout) of the injected site by the hind paw was counted for 60 min or 30 min after histamine and CQ administration, respectively. Before pruritogens injection different groups of mice were treated i.p. with vehicle (10 mL/kg, negative control) or the dose–response of investigated compound.\n(§2) Figure 9 The effect of compound 6 and reference compound pyrilamine (Pyr) on the number of scratching bouts during 60 min-long observation in histamine-induced pruritus (A) and 30 min-long observation in chloroquine-induced pruritus (B). The tested compound or vehicle (1% solution of Tween 80) was administered intraperitoneally (i.p.) 30 min before the intradermal (i.d.) injection of histamine or chloroquine. The results are presented as bar plots showing the mean ± SEM. Statistical analysis: one-way ANOVA followed by Dunnett’s post hoc test, * p < 0.05, ** p < 0.01, *** p < 0.001, n = 8–10 mice per group."}, "[6]": {"tested_on": "mice", "assay": "Chloroquine-induced pruritus", "type": "in vivo", "conditions": "10 mg/kg, 30 min observation", "from_the_text": "When comparing the activity of the tested in both used models, it should be noted that the efficacy (higher maximal effect) and potency (lower doses needed to obtain the same result) of the compound were better in histamine-induced pruritus. Nevertheless, compound 6 was also active in histamine-independent itch, which contrasts with the activity of pyrilamine representing a commonly used drug in the treatment of pruritus. […] The wide spectrum of antipruritic activity of compound 6 is very promising, considering that histamine-independent itch is still a crucial clinical problem in pruritus treatment.\nas §1, §2"}, "[7]": {"assay": "PAMPA assay (blood-brain barrier permeability)", "type": "in vitro ADME", "conditions": "200 µM, 5 h", "procedure": "This test is a popular method for estimating the possibility of crossing BBB through passive transport. […] Caffeine was used as a standard well-permeable compound.\nThe Gentest^TM PAMPA Plate System, purchased from Corning (Tewksbury, MA, USA), was used for permeability evaluation. Caffeine (a reference) and the compound tested were dissolved in DMSO (10 mM stocks) and after dilution to 200 μM in PBS (pH 7.4), added to donor wells. Then, after incubation for 5 h at room temperature, concentrations of tested compounds in donor and acceptor wells were estimated by the mass spectra (LC/MS) method as described previously. The UPLC/MS Waters […] TQD system with the TQ Detector (Waters, Milford, CT, USA) was used for this detection. The assay was performed in triplicate. The permeability value (Pe) was calculated using the formula described by Chen et al.."}}, "data": [{"compound": "CN1CCN(c2nc(N)nc(CC3=CCCCC3)n2)CC1", "note": "[Compound 8, 4-(Cyclohexenylmethyl)-6-(4-methylpiperazin-1-yl)-1,3,5-triazin-2-amine]", "values": [{"measurement": "melting point", "value": "149 to 153", "unit": "°C"}, {"measurement": "Ki", "setting": "[1]", "value": 4700, "unit": "nM"}, {"measurement": "IC50", "setting": "[2]; antagonist mode, forskolin 10 µM, histamine 140 nM, CHO-K1 hH4R cells, read-out: cAMP hH4R IC50 ± SEM", "value": "743 ± 30", "unit": "nM"}, {"measurement": "Kb", "setting": "[2]; calculated from IC50 by Leff–Dougall variant of Cheng–Prusoff equation, read-out: pKb cAMP ± SEM (converted)", "value": 263, "unit": "nM"}, {"measurement": "cAMP hH4R % of max. Antagonist Activity at 10 µM", "setting": "[3]", "value": 98, "unit": "%"}, {"measurement": "IC50", "setting": "[4]; antagonist mode, histamine 500 nM (EC80), Tango-H4-bla U2OS cells, read-out: β-arrestin hH4R IC50 ± SEM", "value": "41 ± 6", "unit": "nM"}, {"measurement": "β-arrestin hH4R % of max. Antagonist Activity at 10 µM", "setting": "[4]; at 10 µM, antagonist mode", "value": 102, "unit": "%"}, {"measurement": "Kb", "setting": "[4]; calculated from IC50 by Leff–Dougall variant of Cheng–Prusoff equation, read-out: pKb β-arrestin ± SEM (converted)", "value": 6.76, "unit": "nM"}]}, {"compound": "COc1ccc(CN(CCN(C)C)c2ccccn2)cc1", "note": "[pyrilamine, reference compound]", "values": [{"measurement": "Number of scratch bouts, histamine-induced pruritus", "setting": "[5]", "value": "28.56 ± 3.55", "unit": "scratch bouts"}, {"measurement": "Effect on scratching behaviour, chloroquine-induced pruritus", "setting": "[6]", "value": "did not significantly reduce scratching behaviour"}]}, {"compound": "Cn1c(=O)c2c(ncn2C)n(C)c1=O", "note": "[Caffeine]", "values": [{"measurement": "Mass Retention (R)", "setting": "[7]", "value": 1.54, "unit": "%"}, {"measurement": "Pe (permeability coefficient) ± SD", "setting": "[7]; PBS pH 7.4, permeable if Pe > 1.5 × 10^−6 cm/s", "value": "9.78 ± 1.75 10^−6 cm/s"}, {"measurement": "Mass Retention (R)", "setting": "[7]; listed as caffeine", "value": 1.54, "unit": "%"}]}]}
